The values that follow come from US7504403B2, “Substituted heterocyclic compounds and methods of use” (Amgen Inc., priority 2004, dated 2009).

For the assay, the system named is LPS induced TNF release. Put plainly: Lipopolysaccharide-Activated THP1 Cell TNF Production Assay. It is filed as cell-based. The settings on record: Homo sapiens, THP-1. As to the method: Lipopolysaccharide-Activated THP1 Cell TNF Production Assay
THP1 cells are resuspended in fresh THP1 media (RPMI 1640, 10% heat-inactivated FBS, 1×PGS, 1×NEAA, plus 30 μM βME) at a concentration of 1E6/mL. One hundred microliters of cells per well are plated in a polystyrene 96-well tissue culture. One microgram per mL of bacterial LPS is prepared in THP1 media and is transferred to the wells. Test compounds are dissolved in 100% DMSO and are serially diluted 3 fold in a polypropylene 96-well microtiter plate (drug plate). HI control and LO control wells contain only DMSO. One microliter of test compound from the drug plate followed by 10 μL of LPS are transferred to the cell plate. The treated cells are induced to synthesize and secrete TNF-α at 37° C. for 3 h. Forty microliters of conditioned media are transferred to a 96-well polypropylene plate containing 110 μL of ECL buffer (50 mM Tris-HCl pH 8.0, 100 mM NaCl, 0.05% Tween 20, 0.05% NaN3 and 1%FBS) supplemented with 0.44 nM MAB610 monoclonal Ab (R&D Systems), 0.34 nM ruthenylated AF210NA polyclonal Ab (R&D Systems) and 44 μg/mL sheep anti-mouse M280 Dynabeads (Dynal). After a 2 h incubation at room temperature with shaking, the reaction is read on the ECL M8 Instrument (IGEN Inc.). A low voltage is applied to the ruthenylated TNF-α immune complexes, which in the presence of TPA (the active component in Origlo), results in a cyclical redox reaction generating light at […]. The amount of secreted TNF-α in the presence of compound compared with that in the presence of DMSO vehicle alone (HI control) is calculated using the formula: % control (POC)=(cpd−average LO)/(average HI−average LO)*100. Data (consisting of POC and inhibitor concentration in μM) is fitted to a 4-parameter equation (y=A+((B−A)/(1+((x/C)^D))), where A is the minimum y (POC) value, B is the maximum y (POC), C is the x (cpd concentration) at the point of inflection and D is the slope factor) using a Levenburg-Marquardt non-linear regression algorithm.
The IC50 is the concentration at which inhibition is half-maximal. A low value points to greater potency. Molecule `CC(Cc1cccc(CN)c1)Nc1nccc(N2CCCn3c2cc(-c2ccccc2)cc3=O)n1` (stereo not drawn) [Example 84, 1-{2-[2-(3-Aminomethyl-phenyl)-1-methyl-ethylamino]-pyrimidin-4-yl}-8-phenyl-1,2,3,4-tetrahydro-pyrido[1,2-a]pyrimidin-6-one] yielded a concentration for half-maximal inhibition (IC50) of no more than 20 µM.
In the case of `O=c1cc(-c2ccccc2)cc2n1CCCN2c1cc(NCCc2ccccc2)ncn1` [Example 85, 1-(6-Phenethylamino-pyrimidin-4-yl)-8-phenyl-1,2,3,4-tetrahydro-pyrido[1,2-a]pyrimidin-6-one] it was no more than 20 µM; in that of `O=c1cc(-c2ccccc2)cc2n1CCCN2c1cc(NCCc2ccccc2Cl)ncn1` [Example 86, 1-{6-[2-(2-Chloro-phenyl)-ethylamino]-pyrimidin-4-yl}-8-phenyl-1,2,3,4-tetrahydro-pyrido[1,2-a]pyrimidin-6-one], no more than 20 µM; in that of `O=c1cc(-c2ccccc2)cc2n1CCN2c1ccnc(NCCc2ccccc2)n1` [Example 87, 1-(2-Phenethylamino-pyrimidin-4-yl)-7-phenyl-2,3-dihydro-1H-imidazo[1,2-a]pyridin-5-one], no more than 20 µM.
In the case of `CC(Cc1cccc(CO)c1)Nc1nccc(N2CCn3c2cc(-c2ccccc2)cc3=O)n1` (stereo not drawn) [Example 88, 1-{2-[2-(3-Hydroxymethyl-phenyl)-1-methyl-ethylamino]-pyrimidin-4-yl}-7-phenyl-2,3-dihydro-1H-imidazo[1,2-a]pyridin-5-one] it was no more than 20 µM; in that of `O=c1cc(-c2ccccc2)cc2n1CCN2c1cncc(NCCc2ccccc2)n1` [Example 89, 1-(6-Phenethylamino-pyrazin-2-yl)-7-phenyl-2,3-dihydro-1H-imidazo[1,2-a]pyridin-5-one], no more than 20 µM.
